Measured values: patent US7220744B2, “Monocyclic substituted phenyl methanones” (Hoffman-La Roche Inc., priority 2005, dated 2007)

target: T1, mGlyT-1b (Mus musculus, UniProt P28571); experiment: Glycine Uptake Inhibition Assay (mGlyT-1b); format: cell-based; details: inhibition of [3H]-glycine uptake in Flp-in-CHO cells transfected with mGlyT-1b cDNA; 20 min preincubation at 22° C.; read-out: IC50 (μM) at GlyT-1
T1 construct: host or cells: Flp-in-CHO cells (vendor and catalogue number are those of the host cell line)
T1 sequence (P28571 1-651 isoform P28571-2): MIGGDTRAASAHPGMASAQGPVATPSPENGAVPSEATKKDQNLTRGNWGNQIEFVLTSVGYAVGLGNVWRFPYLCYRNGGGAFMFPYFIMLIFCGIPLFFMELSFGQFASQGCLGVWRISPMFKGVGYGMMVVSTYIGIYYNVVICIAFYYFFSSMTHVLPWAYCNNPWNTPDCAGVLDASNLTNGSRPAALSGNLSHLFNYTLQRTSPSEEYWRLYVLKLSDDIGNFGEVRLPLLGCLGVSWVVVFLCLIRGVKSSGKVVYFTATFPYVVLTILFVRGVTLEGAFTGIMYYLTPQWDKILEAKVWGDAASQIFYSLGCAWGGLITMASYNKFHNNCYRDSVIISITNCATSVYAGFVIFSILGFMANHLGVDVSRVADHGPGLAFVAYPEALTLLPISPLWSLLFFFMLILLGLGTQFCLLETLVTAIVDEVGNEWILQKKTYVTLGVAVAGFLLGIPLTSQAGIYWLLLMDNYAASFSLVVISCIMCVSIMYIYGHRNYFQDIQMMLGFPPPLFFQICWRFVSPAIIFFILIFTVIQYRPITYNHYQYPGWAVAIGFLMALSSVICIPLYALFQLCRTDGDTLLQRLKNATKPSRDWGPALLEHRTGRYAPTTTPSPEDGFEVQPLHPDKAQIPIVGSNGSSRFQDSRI
Method: DMEM complete medium: Nutrient mixture F-12 (Gibco Life-technologies), fetal bovine serum (FBS) 5%, (Gibco life technologies), Penicillin/Streptomycin 1% (Gibco life technologies), Hygromycin 0.6 mg/ml (Gibco life technologies), Glutamine 1 mM Gibco life technologies)
Uptake buffer (UB): 150 mM NaCl, 10 mM Hepes-Tris, pH 7.4, 1 mM CaCl2, 2.5 mM KCl, 2.5 mM MgSO4, 10 mM (+) D-glucose.
Flp-in™-CHO (Invitrogen Cat n° R758-07) cells stably transfected with mGlyT1b cDNA.
Glycine Uptake Inhibition Assay (mGlyT-1b)
On day 1 mammalian cells, (Flp-in™-CHO), transfected with mGlyT-1b cDNA, were plated at the density of 40,000 cells/well in complete F-12 medium, without hygromycin in 96-well culture plates. On day 2, the medium was aspirated and the cells were washed twice with uptake buffer (UB). The cells were then incubated for 20 min at 22° C. with either (i) no potential competitor, (ii) 10 mM non-radioactive glycine, (iii) a concentration of a potential inhibitor. A range of concentrations of the potential inhibitor was used to generate data for calculating the concentration of inhibitor resulting in 50% of the effect (e.g. IC50, the concentration of the competitor inhibiting glycine uptake of 50%). A solution was then immediately added containing [^3H]-glycine 60 nM (11–16 Ci/mmol) and 25 μM non-radioactive glycine. The plates were incubated with gentle shaking and the reaction was stopped by aspiration of the mixture and washing (three times) with ice-cold UB. The cells were lysed with scintillation liquid, shaken 3 hours and the radioactivity in the cells was counted using a scintillation counter.

Structure (SMILES)	IC50
CCCCS(=O)(=O)c1cnc(N2CCN(C(=O)c3cc(S(C)(=O)=O)ccc3OCC(C)(C)C)CC2)s1 [Example 42, {4-[5-(Butane-1-sulfonyl)-thiazol-2-yl]-piperazin-1-yl}-[2-(2,2-dimethyl-propoxy)-5-methanesulfonyl-phenyl]-methanone]	0.046 µM
CC[C@H](C)Oc1ccc(S(C)(=O)=O)cc1C(=O)N1CCN(c2ncc(C(F)(F)F)s2)CC1 [Example 78, (2-((S)-sec-Butoxy)-5-methanesulfonyl-phenyl)-[4-(5-trifluoromethyl-thiazol-2-yl)-piperazin-1-yl]-methanone]	0.089 µM
CC(C)COc1ccc(S(C)(=O)=O)cc1C(=O)N1CCN(c2ncc(C#N)s2)CC1 [Example 16, 2-[4-(2-Isobutoxy-5-methanesulfonyl-benzoyl)-piperazin-1-yl]-thiazole-5-carbonitrile]	0.065 µM
CC(C)COc1ccc(S(C)(=O)=O)cc1C(=O)N1CCN(c2ncc(S(=O)(=O)c3ccccc3)s2)CC1 [Example 31, [4-(5-Benzenesulfonyl-thiazol-2-yl)-piperazin-1-yl]-(2-isobutoxy-5-methanesulfonyl-phenyl)-methanone]	0.024 µM
CC(C)Oc1ccc(S(C)(=O)=O)cc1C(=O)N1CCN(c2ncc(S(=O)(=O)c3ccccc3)s2)CC1 [Example 4, [4-(5-Benzenesulfonyl-thiazol-2-yl)-piperazin-1-yl]-(2-isopropoxy-5-methanesulfonyl-phenyl)-methanone]	0.061 µM
CNS(=O)(=O)c1ccc(OC2CCCC2)c(C(=O)N2CCN(c3ncc(C#N)s3)CC2)c1 [Example 99, 3-[4-(5-Cyano-thiazol-2-yl)-piperazine-1-carbonyl]-4-cyclopentyloxy-N-methyl-benzenesulfonamide]	0.021 µM
CC[C@@H](C)Oc1ccc(S(C)(=O)=O)cc1C(=O)N1CCN(c2ncc(C(F)(F)F)s2)CC1 [Example 77, (2-((R)-sec-Butoxy)-5-methanesulfonyl-phenyl)-[4-(5-trifluoromethyl-thiazol-2-yl)-piperazin-1-yl]-methanone]	0.1 µM
CC(C)(C)COc1ccc(S(C)(=O)=O)cc1C(=O)N1CCN(c2ncc(S(=O)(=O)c3ccccc3)s2)CC1 [Example 29, [4-(5-Benzenesulfonyl-thiazol-2-yl)-piperazin-1-yl]-[2-(2,2-dimethyl-propoxy)-5-methanesulfonyl-phenyl]-methanone]	0.017 µM
CNS(=O)(=O)c1ccc(OC2CCCC2)c(C(=O)N2CCN(c3nnc(C(F)(F)F)s3)CC2)c1 [Example 101, 4-Cyclopentyloxy-N-methyl-3-[4-(5-trifluoromethyl-[1,3,4]thiadiazol-2-yl)-piperazine-1-carbonyl]-benzenesulfonamide]	0.026 µM
CS(=O)(=O)c1ccc(OC2CCCC2)c(C(=O)N2CCN(c3ncc(S(=O)(=O)c4ccccc4)s3)CC2)c1 [Example 30, [4-(5-Benzenesulfonyl-thiazol-2-yl)-piperazin-1-yl]-(2-cyclopentyloxy-5-methanesulfonyl-phenyl)-methanone]	0.023 µM
CS(=O)(=O)c1ccc(OCC2CCC2)c(C(=O)N2CCN(c3ncc(C#N)s3)CC2)c1 [Example 14, 2-[4-(2-Cyclobutylmethoxy-5-methanesulfonyl-benzoyl)-piperazin-1-yl]-thiazole-5-carbonitrile]	0.083 µM

Continued, values first:

IC50	Structure (SMILES)
0.075 µM	C[C@H](Oc1ccc(S(C)(=O)=O)cc1C(=O)N1CCN(c2nnc(C(F)(F)F)s2)CC1)C(F)(F)F [Example 93, [5-Methanesulfonyl-2-((S)-2,2,2-trifluoro-1-methyl-ethoxy)-phenyl]-[4-(5-trifluoromethyl-[1,3,4]thiadiazol-2-yl)-piperazin-1-yl]-methanone]
0.082 µM	CC(Oc1ccc(S(C)(=O)=O)cc1C(=O)N1CCN(c2ncc(C#N)s2)CC1)C(F)(F)F (stereo not shown) [Example 10, 2-{4-[5-Methanesulfonyl-2-(2,2,2-trifluoro-1-methyl-ethoxy)-benzoyl]-piperazin-1-yl}-thiazole-5-carbonitrile]
0.082 µM	C[C@@H](Oc1ccc(S(C)(=O)=O)cc1C(=O)N1CCN(c2ncc(C(F)(F)F)s2)CC1)C(F)(F)F [Example 68, [5-Methanesulfonyl-2-((R)-2,2,2-trifluoro-1-methyl-ethoxy)-phenyl]-[4-(5-trifluoromethyl-thiazol-2-yl)-piperazin-1-yl]-methanone]
0.098 µM	CC(Oc1ccc(S(C)(=O)=O)cc1C(=O)N1CCN(c2ncc(C(F)(F)F)s2)CC1)C(F)(F)F (stereo not shown) [Example 59, [5-Methanesulfonyl-2-(2,2,2-trifluoro-1-methyl-ethoxy)-phenyl]-[4-(5-trifluoromethyl-thiazol-2-yl)-piperazin-1-yl]-methanone]
0.076 µM	CC(C)Sc1ccc(S(C)(=O)=O)cc1C(=O)N1CCN(c2ncc(C(F)(F)F)s2)CC1 [Example 84, (2-Isopropylsulfanyl-5-methanesulfonyl-phenyl)-[4-(5-trifluoromethyl-thiazol-2-yl)-piperazin-1-yl]-methanone]
0.006 µM	CS(=O)(=O)c1ccc(OCC(F)(F)C(F)(F)F)c(C(=O)N2CCN(c3ncc(C(F)(F)F)s3)CC2)c1 [Example 103, [5-Methanesulfonyl-2-(2,2,3,3,3-pentafluoro-propoxy)-phenyl]-[4-(5-trifluoromethyl-thiazol-2-yl)-piperazin-1-yl]-methanone]
0.046 µM	Cc1nc(N2CCN(C(=O)c3cc(S(C)(=O)=O)ccc3O[C@@H](C)C(F)(F)F)CC2)sc1C(F)(F)F [Example 80, [5-Methanesulfonyl-2-((S)-2,2,2-trifluoro-1-methyl-ethoxy)-phenyl]-[4-(4-methyl-5-trifluoromethyl-thiazol-2-yl)-piperazin-1-yl]-methanone]
0.057 µM	C[C@H](Oc1ccc(S(C)(=O)=O)cc1C(=O)N1CCN(c2ncc(CC(F)(F)F)s2)CC1)C(F)(F)F [Example 70, [5-Methanesulfonyl-2-((S)-2,2,2-trifluoro-1-methyl-ethoxy)-phenyl]-{4-[5-(2,2,2-trifluoro-ethyl)-thiazol-2-yl]-piperazin-1-yl}-methanone]
0.073 µM	Cc1sc(N2CCN(C(=O)c3cc(S(C)(=O)=O)ccc3OC(C)C(F)(F)F)CC2)nc1C(F)(F)F (stereo not shown) [Example 55, [5-Methanesulfonyl-2-(2,2,2-trifluoro-1-methyl-ethoxy)-phenyl]-[4-(5-methyl-4-trifluoromethyl-thiazol-2-yl)-piperazin-1-yl]-methanone]
0.046 µM	C[C@H](Oc1ccc(S(C)(=O)=O)cc1C(=O)N1CCN(c2ncc(C(F)(F)F)s2)CC1)C(F)(F)F [Example 67, [5-Methanesulfonyl-2-((S)-2,2,2-trifluoro-1-methyl-ethoxy)-phenyl]-[4-(5-trifluoromethyl-thiazol-2-yl)-piperazin-1-yl]-methanone]
0.043 µM	CC(C)(C)COc1ccc(S(C)(=O)=O)cc1C(=O)N1CCN(c2ncc(C#N)s2)CC1 [Example 19, 2-{4-[2-(2,2-Dimethyl-propoxy)-5-methanesulfonyl-benzoyl]-piperazin-1-yl}-thiazole-5-carbonitrile]
0.061 µM	CC(C)(Oc1ccc(S(C)(=O)=O)cc1C(=O)N1CCN(c2ncc(C(F)(F)F)s2)CC1)C(F)(F)F [Example 66, [5-Methanesulfonyl-2-(2,2,2-trifluoro-1,1-dimethyl-ethoxy)-phenyl]-[4-(5-trifluoromethyl-thiazol-2-yl)-piperazin-1-yl]-methanone]
0.031 µM	CCS(=O)(=O)c1ccc(OC(C)C(F)(F)F)c(C(=O)N2CCN(c3ncc(C(F)(F)F)s3)CC2)c1 (stereo not shown) [Example 74, [5-Ethanesulfonyl-2-(2,2,2-trifluoro-1-methyl-ethoxy)-phenyl]-[4-(5-trifluoromethyl-thiazol-2-yl)-piperazin-1-yl]-methanone]
0.069 µM	C[C@@H](Oc1ccc(S(C)(=O)=O)cc1C(=O)N1CCN(c2ncc(CC(F)(F)F)s2)CC1)C(F)(F)F [Example 71, [5-Methanesulfonyl-2-((R)-2,2,2-trifluoro-1-methyl-ethoxy)-phenyl]-{4-[5-(2,2,2-trifluoro-ethyl)-thiazol-2-yl]-piperazin-1-yl}-methanone]
